The nature of series [1]: Storage stability: concentration / degradation of compound of Formula I in composition. The series is classed as physicochemical. The note with it: for 2W/54° C. analysis (% of 10° C.): non-aqueous composition, 2 weeks at 54° C. The text has this:
As used herein, the term “stable” when used in connection with chemical stability, e.g. chemically stable, means that the composition meets the chemical stability standards set forth by the Food and Agriculture Organization of the United Nations (FAO) in the Manual on Development and Use of FAO and WHO Specification for Pesticides (First Edition—Third Revision) (the “FAO/WHO Manual”) (available at http://www.fao.org/agriculture/crops/thematic-sitemap/theme/pests/jmps/manual/en/), the entire content of which is hereby incorporate by reference into the subject application. […] The amount of degradation permitted before the degradation is considered to be significant depends on the concentration of the active ingredients in the composition.
The physical and chemical stability of composition of Example 1 were tested under various conditions including CIPAC conditions.

The test system of series [2] is Zymoseptoria tritici strain Mg Tri-R6. Nature of the series: Fungicidal efficacy on treated wheat leaves inoculated with Z. tritici (AUDPC, intensity of infection). Conditions: 21 dpi. It counts as in vivo. The procedure:
Wheat crop (Winter wheat plants cv. Alixan (Limagrain) at the BBCH 12 growth stage) was treated with compositions comprising the compound of Formula I and adjuvants in different concentrations as built-in composition and/or as tank mix application.
All the tested compositions and mixtures were prepared in a volume of water corresponding to 200 L/ha and used 3 hours after preparation.
The SC composition of Example 1 was mixed with Trycol® (0.2 or 0.4 L per hectare) or Silwet (0.01 L per hectare) which were added as tank mix in 200 L volume of water.
The compositions and mixtures were applied with a hand sprayer at operating pressure of 2 bars. Three replicates (pots) of 6 wheat plants each were used for each condition tested.
After treatment, wheat plants were left to dry at room temperature for 1 hour and then incubated in a climatic chamber: Temperature of 24° C. day/18° C. night—Photoperiod of 16 h light/8 h dark and a Relative Humidity of 65%.
Fragments of the first leaf are cut and transferred in Petri dish containing adapted water agar (6 leaf fragments per Petri dish). Fragments are inoculated with a calibrated pycnospores suspension of Z. tritici strain Mg Tri-R6. […]
After incubation time of 21 days, the intensity of the infection, which is the surface of colonized leaf by Z. tritici strain, is assessed (quantitative criteria). The fungicidal efficacy on each composition is then determined in percent of the untreated control. […]
Disease assessments were carried out 21 days post inoculation (dpi) by measuring the length of the necrosis of the leaf fragment. The intensity of infection was then determined in percent of the total length of the leaf fragment.
The efficacy was calculated based on the Area Under the Disease Progress Curve (AUDPC) which is a quantitative measure of disease intensity over time. […]
The fungicide efficacies were determined from the AUDPC values and expressed in percent of the untreated control.

Series [3] in a line: Water content of composition. Conditions: non-aqueous composition. It counts as physicochemical. The text has this:
As used herein, the term “water content” when used in connection with a composition, a mixture, or a component in the composition or mixture refers to the amount of free water in the composition, mixture or component of the composition or mixture and the water molecules chemically bound to another compound, such as water molecules in a hydrate.

Where [4] appears, read: 20% Hydrate and 80% Form I Polymorph.
The mark [5] stands for this setting: 45% Hydrate, and 55% Form I Polymorph.

Structures are written as SMILES. Several values for one entry are separate records, joined by “and”; a condition that tells them apart may be missing. Equal entries are not always repeated.

`Cc1ccc(S(=O)(=O)n2cc(F)c(=N)n(C)c2=O)cc1` [compound of Formula I, 5-fluoro-4-imino-3-methyl-1-tosyl-3,4-dihydropyrimidin-2(1H)-one]: the “degradation of the compound of Formula I” value was 4% in series [1] (8 weeks of storage at 40° C., with Attagel 50 (0.5%) and Bentone SD-1 (0.5%)); 7-8% in series [1] (8 weeks of storage at 40° C., without Attagel 50 and Bentone SD-1); ≤ 5% in series [1] (non-aqueous composition with water scavenger); 5-10% in series [1] (non-aqueous composition without water scavenger). In addition, the “fungicidal efficacy compared to application without adjuvant” value in series [2] (SC composition tank mixed with Silwet® (0.01 L/ha), wheat cv. Alixan) was “increased the efficacy and the effective fungicidal activity”; in series [2] (SC composition tank mixed with Trycol® (0.2 or 0.4 L/ha), wheat cv. Alixan), “increased the efficacy and the effective fungicidal activity”; in series [2] (two adjuvants: Silwet® or Agnique® BP 420 with PVP or VP/VA, 10 g a.i./ha), “increased the efficacy and the effective fungicidal activity”.
Take `Cc1ccc(S(=O)(=O)n2cc(F)c(=N)n(C)c2=O)cc1` [Hydrate I, 5-fluoro-4-imino-3-methyl-1-tosyl-3,4-dihydropyrimidin-2(1H)-one]: the “2W/54° C. analysis (% of 10° C.)” value in series [1] (setting [4]) was 88.5 % of 10 °C and 88.7 % of 10 °C; in series [1] (setting [5]), 89.3 % of 10 °C and 88.6 % of 10 °C. Also, the “% Water Content” value in series [3] (setting [4]) was 0.24% and 0.22%; in series [3] (setting [5]), 0.35%.

Source of the values: patent publication US20230292746A1, “MIXTURES AND COMPOSITIONS COMPRISING 5-FLUORO-4-IMINO-3- METHYL-1-TOSYL-3,4-DIHYDROPYRIMIDIN-2-ONE, AND METHODS OF USE THEREOF” (Adama Makhteshim Ltd., priority 2020, published 2023).
